Data taken from US20210038570A1, “COMPOSITIONS AND METHODS FOR TREATING CUTANEOUS FIBROSIS” (Timber Pharmaceuticals, Inc., priority 2018, published 2021).

How the values were obtained:
[1] = system: donor one normal human dermal fibroblasts induced with TGF-β1; experiment: Cell viability assay (GF-AFC fluorescence); type: cell-based; conditions: 50 ng/mL TGF-β1, 48 hours
Experimental: (§1) The effect of sitaxentan on cell viability, cell cytotoxicity, and apoptosis was measured in an assay using donor one normal human dermal fibroblasts induced with TGF-β1 into a profibrotic phenotype. For these assays cells were grown for 48 hours in the presence of vehicle control, sitaxentan, and bosentan. The appropriate assay reagents and measuring techniques were used as indicated herein. donor one normal human dermal fibroblast cells (LLCT FC0024 lot 03869_ fibroblast) were seeded to confluence in 96 well plates in 10% fetal bovine serum (FBS) Dulbecco's modified eagle medium (DMEM). The cells were washed to remove the FBS, and serum free media is added overnight (O/N). The cells were then stimulated with 50 ng/mL TGF-β1 and treated for 48 hours. The following reagents were used for the different assays: For the cell viability/cytotoxicity assay: A master mix of the viability/cytotoxicity reagent was made by combining 10 uL of each substrate (GF-AFC and bis-AAF-R110) to 2 mLs of Assay Buffer (Promega, Cat #G6320). 20 μl of this viability/cytotoxicity reagent was then added to each well and briefly mixed. […] Data were analyzed using GraphPad Prism 7. Six to nine replicates were run for each sample.

[2] = oral bosentan; cited from earlier work
[3] = system: donor one normal human dermal fibroblasts induced with TGF-β1; experiment: Cell cytotoxicity assay (bis-AAF-R110 fluorescence); type: cell-based; conditions: for Cell cytotoxicity, relative fluorescence units: 50 ng/mL TGF-β1, 48 hours; for Cytotoxicity compared to the vehicle control (in words): statistics at 100 μM (FIG. 5); for Cytotoxicity, bosentan compared with sitaxentan (in words): statistics at 100 μM between groups (FIG. 5)
Experimental: as §1

[4] = system: donor one normal human dermal fibroblasts induced with TGF-β1; experiment: Collagen production, AlphaLISA hPIP assay; type: cell-based; conditions: for human procollagen Type I C-peptide (HPIP) level: 50 ng/mL TGF-β1, 48 hours; for Effect on elevated collagen levels (in words): statistics at 100 μM vs vehicle control and between groups (FIG. 3)
Experimental: The effect of sitaxentan on collagen production was measured in an AlphaLISA assay using donor one normal human dermal fibroblasts induced with TGF-β1 into a profibrotic phenotype. For this assay cells were grown for 48 hours in the presence of vehicle control, sitaxentan, and bosentan. See, http://www.perkinelmer.com/product/alphalisa-hpip-collagen-[…]. An AlphaLISA assay was used, which is a variation of FRET (Fluorescence resonance energy transfer) technology that allows for the detection of molecules of interest in a no-wash, highly sensitive, quantitative assay. In an AlphaLISA assay, a biotinylated anti-analyte antibody binds to Streptavidin-coated donor beads while another anti-analyte antibody is conjugated to AlphaLISA Acceptor beads. In the presence of the analyte, the beads come into close proximity. The excitation of the donor beads cause the release of singlet oxygen molecules that trigger a cascade of energy transfer in the acceptor beads, resulting in a sharp peak of light emission at 615 nm. donor one normal human dermal fibroblast cells (LLCT FC0024 lot 03869_ fibroblast) were seeded to confluence in 96 well plates in 10% fetal bovine serum (FBS) Dulbecco's modified eagle medium (DMEM). The cells were washed to remove the FBS, and serum free media was added overnight (O/N). The cells were then stimulated with 50 ng/mL TGF-β1 and treated. The supernatant media above the cells in the wells was collected and diluted 1:20 in serum-free DMEM media. 5 μL of each hPIP analyte standard or 5 μL of sample was added. 10 μL of 5× […] Acceptor beads was added (10 μg/mL final). The plate was incubated 30 minutes at 23° C. 10 μL of 5× Biotinylated Anti-hPIP Antibody was added (1 nM). The plate was incubated 60 minutes at 23° C. 25 μL of 2× Streptavidin-Donor beads were added (40 μg/mL final). The plate was incubated 30 minutes at 23° C. in the dark. The plate was read using a Perkin Elmer EnVision-Alpha Reader (615 nm). Data were analyzed using GraphPad Prism 7. Three to four replicates were run for each sample.

[5] = system: donor one normal human dermal fibroblasts induced with TGF-β1; experiment: Apoptosis assay (Caspase-Glo 3/7 luminescence); type: cell-based; conditions: for Apoptosis, relative light units: 50 ng/mL TGF-β1, 48 hours; for Effect on apoptosis (in words): statistics at 100 μM vs vehicle control and between groups (FIG. 6)
Experimental: The effect of sitaxentan on cell viability, cell cytotoxicity, and apoptosis was measured in an assay using donor one normal human dermal fibroblasts induced with TGF-β1 into a profibrotic phenotype. For these assays cells were grown for 48 hours in the presence of vehicle control, sitaxentan, and bosentan. The appropriate assay reagents and measuring techniques were used as indicated herein. donor one normal human dermal fibroblast cells (LLCT FC0024 lot 03869_ fibroblast) were seeded to confluence in 96 well plates in 10% fetal bovine serum (FBS) Dulbecco's modified eagle medium (DMEM). The cells were washed to remove the FBS, and serum free media is added overnight (O/N). The cells were then stimulated with 50 ng/mL TGF-β1 and treated for 48 hours. For the apoptosis assay: 100 μl of Caspase-Glo® 3/7 Reagent (Promega, Cat #G6320), for the apoptosis assay, was subsequently added after the viability/cytotoxicity fluorescent reads and briefly mixed. The plate was incubated for an additional 30 minutes at room temperature prior to the measurement of luminescence to detect apoptosis. Data were analyzed using GraphPad Prism 7. Six to nine replicates were run for each sample.

[6] = system: donor one normal human dermal fibroblasts induced with TGF-β1; experiment: Scratch (wound closure) assay, donor one NHDFs induced with TGF-β1; type: cell-based; conditions: for Scratch assay distance change: 50 ng/mL TGF-β1, 24 hours; for Effect on migration of fibroblasts (in words): donor one NHDFs, statistics at 100 μM vs vehicle control (FIG. 1)
Experimental: The effect of sitaxentan in a wound closure assay was measured using donor one normal human dermal fibroblasts induced with TGF-β1 into a profibrotic phenotype. […] For this assay the cells were grown to confluence, a scratch/ablation, i.e. “wound”, was created, and migration across the cleared zone was tracked. See, http://journals.plos.org/plosone/article?id=10.1371/journal.pone.0007438 and Wu, M. et al. Rosiglitazone abrogates bleomycin-induced scleroderma and blocks profibrotic responses through peroxisome proliferator-activated receptor-gamma. Am J Pathol174, 519-533, doi:10.2353/ajpath.2009.080574 (2009) donor one normal human dermal fibroblast cells (LLCT FC0024 lot 03869_ fibroblast) were seeded to confluence in 96 well plates in 10% fetal bovine serum (FBS) Dulbecco's modified eagle medium (DMEM). The cells were washed to remove the FBS, and serum free media was added for 16 hr overnight (O/N). Scratch assays were performed across each confluent monolayer. […] The cells were treated with increasing concentrations (1 μM, 3 μM, 10 μM, 30 μM, and 100 μM) of vehicle control, sitaxentan, and bosentan (as a comparator compound), in the presence of 50 ng/mL TGF-β1 to induce fibrogenesis. Six replicate samples were run for each concentration. Time zero images were taken and initial distance of the scratch/ablation recorded. The samples were incubated for 24 hours at 37° C., after which the media was removed and […] calcein acetoxymethyl (calcein AM) was added. The samples were incubated for 30 minutes. Images were taken and the distance of the scratch/ablation recorded. Decreases in distance indicated “wound” closure. Distances were calculated and analyzed using GraphPad Prism 7.

[7] = in vivo; cited from earlier work

Row | Structure (SMILES) | Cell viability, relative fluorescence units ([1]; 1 μM) [RFUs] | Cell viability, relative fluorescence units ([1]; 3 μM) [RFUs] | Cell viability, relative fluorescence units ([1]; 10 μM) [RFUs] | Cell viability, relative fluorescence units ([1]; 30 μM) [RFUs] | Cell viability, relative fluorescence units ([1]; 100 μM) [RFUs] | Cell cytotoxicity, relative fluorescence units ([3]; 1 μM) [RFUs] | Cell cytotoxicity, relative fluorescence units ([3]; 3 μM) [RFUs] | Cell cytotoxicity, relative fluorescence units ([3]; 10 μM) [RFUs] | Cell cytotoxicity, relative fluorescence units ([3]; 30 μM) [RFUs] | Cell cytotoxicity, relative fluorescence units ([3]; 100 μM) [RFUs] | Cytotoxicity compared to the vehicle control (in words) [3] | Cytotoxicity, bosentan compared with sitaxentan (in words) [3] | human procollagen Type I C-peptide (HPIP) level ([4]; 1 μM) [ng/mL] | human procollagen Type I C-peptide (HPIP) level ([4]; 3 μM) [ng/mL] | human procollagen Type I C-peptide (HPIP) level ([4]; 10 μM) [ng/mL] | human procollagen Type I C-peptide (HPIP) level ([4]; 30 μM) [ng/mL] | human procollagen Type I C-peptide (HPIP) level ([4]; 100 μM) [ng/mL] | Effect on elevated collagen levels (in words) [4] | Apoptosis, relative light units ([5]; 1 μM) [RLUs] | Apoptosis, relative light units ([5]; 3 μM) [RLUs] | further results
1 | COc1ccccc1Oc1c(NS(=O)(=O)c2ccc(C(C)(C)C)cc2)nc(-c2ncccn2)nc1OCCO [BOS] | 5406.8 | 5548.5 | 5521.2 | 5537.0 | 5584.3 | 4256.9 | 3954.2 | 3764.0 | 4607.5 | 3929.0 | neither bosentan nor sitaxentan was significantly more cytotoxic than the vehicle control | significantly more cytotoxic than sitaxentan | 8.2 | 8.6 | 7.9 | 7.1 | 6.8 | significantly decreased elevated collagen levels | 39366.8 | 38639.8 | Cessation of treatment due to liver enzyme abnormalities, share of patients [2]: about 5%; Liver enzyme abnormalities, share of patients affected [2]: about 10%; Apoptosis, relative light units ([5]; 10 μM): 38586.7 RLUs; Apoptosis, relative light units ([5]; 30 μM): 42825.2 RLUs; Apoptosis, relative light units ([5]; 100 μM): 43330.7 RLUs; Effect on apoptosis (in words) [5]: elevated; Scratch assay distance change ([6]; 1 μM): 478 µm; Scratch assay distance change ([6]; 3 μM): 356 µm; Scratch assay distance change ([6]; 10 μM): 359 µm; Scratch assay distance change ([6]; 30 μM): 535 µm; Scratch assay distance change ([6]; 100 μM): 414 µm; Effect on migration of fibroblasts (in words) [6]: no significant effect
2 | Cc1cc2c(cc1CC(=O)c1sccc1S(=O)(=O)Nc1onc(C)c1Cl)OCO2 [SIT, N-(4-Chloro-3-methyl-5-isoxazolyl)-2-[(2-methyl-4,5-methylenedioxyphenyl)-acetyl]thiophene-3-sulfonamide] | 5678.3 | 5639.0 | 5600.5 | 5250.8 | 5171.0 | 4643.9 | 5058.3 | 4741.7 | 3837.5 | 2911.3 | neither bosentan nor sitaxentan was significantly more cytotoxic than the vehicle control | significantly less cytotoxic | 7.0 | 7.1 | 6.4 | 5.8 | 2.2 | significantly more efficacious than bosentan and returning collagen levels to untreated / uninduced levels | 37593.4 | 39162.8 | Metabolism [7]: hepatic (CYP2C9- and CYP3A4-mediated); Protein binding [7]: > 99%; Apoptosis, relative light units ([5]; 10 μM): 39512.0 RLUs; Apoptosis, relative light units ([5]; 30 μM): 46053.5 RLUs; Apoptosis, relative light units ([5]; 100 μM): 51050.2 RLUs; Effect on apoptosis (in words) [5]: significantly more potent effect than bosentan; Scratch assay distance change ([6]; 1 μM): 506 µm; Scratch assay distance change ([6]; 3 μM): 557 µm; Scratch assay distance change ([6]; 10 μM): 496 µm; Scratch assay distance change ([6]; 30 μM): 494 µm; Scratch assay distance change ([6]; 100 μM): 269 µm; Effect on migration of fibroblasts (in words) [6]: significantly reduced the migration
